Molecules are shown by their SMILES. Values joined by “and” are separate entries in the source; they are usually repeats but may differ in a detail not shown here. Equal values may be shown once.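 These data come from cells grown in 96-well plates and exposed to compound for 48 hours at five concentrations. GI50: concentration for 50% inhibition of growth. At the TGI there is no net growth.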 Bounds are passed on as bounds.

One assay relates to HOP-92 NSCLC. The assay can be described thus: growth of human tumour cells (NCI), 48 h.
As to `COC1CCC(N2C(=O)CNc3ncc(-c4ccc(C(C)(C)O)nc4)nc32)CC1` (stereo not given), the GI50 is 0.129 µM and 0.0247 µM; the TGI is 0.934 µM and 0.389 µM.

For the compound `C#Cc1ccc(-n2c(/C=C/c3ccc(C(F)(F)F)cc3)nc3ncccc3c2=O)cc1`, the GI50 was 1.32 µM and the TGI turned out to be 3.44 µM.

In the case of `Cc1cc(C)nc(NS(=O)(=O)c2ccc(NC(=O)c3ccc(Cl)c4c(Nc5ccc(S(=O)(=O)Nc6nc(C)cc(C)n6)cc5)c5ccccc5nc34)cc2)n1`, the TGI stood at 5.93 µM.

For `Cc1cc(I)cc(CN(C)CCCCN2CCCCC2)c1O`, the GI50 is 6.2 µM and the TGI worked out at 38.2 µM.

Regarding `CCCCCN(CCCCC)CCCNc1c2c(nc3ccc(Cl)cc13)CCCC2`, the GI50 is 1.19 µM and the TGI came out at 5.63 µM.

In the next assay the test system is OVCAR-3 ovarian. The assay can be described thus: growth of human tumour cells (NCI), 48 h.
On to `COC1CCC(N2C(=O)CNc3ncc(-c4ccc(C(C)(C)O)nc4)nc32)CC1` (stereo not given), for which the GI50 is 0.904 µM and 0.248 µM; the TGI is over 33 µM.

For `C#Cc1ccc(-n2c(/C=C/c3ccc(C(F)(F)F)cc3)nc3ncccc3c2=O)cc1`, the GI50 was 1.67 µM and the TGI came out at 3.17 µM.

`Cc1cc(C)nc(NS(=O)(=O)c2ccc(NC(=O)c3ccc(Cl)c4c(Nc5ccc(S(=O)(=O)Nc6nc(C)cc(C)n6)cc5)c5ccccc5nc34)cc2)n1` came in with a TGI of over 100 µM.

In the case of `Cc1cc(I)cc(CN(C)CCCCN2CCCCC2)c1O`, the GI50 is 20 µM and the TGI was 53.4 µM.

Turning to `CCCCCN(CCCCC)CCCNc1c2c(nc3ccc(Cl)cc13)CCCC2`, the GI50 is 1.96 µM and the TGI turned out to be 4.36 µM.

For a further assay, the system named is OVCAR-4 ovarian. Nature of the assay: growth of human tumour cells (NCI), 48 h.
`COC1CCC(N2C(=O)CNc3ncc(-c4ccc(C(C)(C)O)nc4)nc32)CC1` (stereo not given): the GI50 was 0.568 µM and 0.12 µM; the TGI is > 7.88 µM and 1.07 µM.

For the compound `C#Cc1ccc(-n2c(/C=C/c3ccc(C(F)(F)F)cc3)nc3ncccc3c2=O)cc1`, the GI50 was 1.58 µM and the TGI turned out to be 3.29 µM.

Regarding `Cc1cc(C)nc(NS(=O)(=O)c2ccc(NC(=O)c3ccc(Cl)c4c(Nc5ccc(S(=O)(=O)Nc6nc(C)cc(C)n6)cc5)c5ccccc5nc34)cc2)n1`, the TGI amounted to 48.1 µM.

Regarding `Cc1cc(I)cc(CN(C)CCCCN2CCCCC2)c1O`, the GI50 was 28.3 µM and the TGI was over 100 µM.

In the case of `CCCCCN(CCCCC)CCCNc1c2c(nc3ccc(Cl)cc13)CCCC2`, the GI50 was 2.05 µM and the TGI is 12 µM.

For another assay, the system named is COLO 205 colon. Nature of the assay: growth of human tumour cells (NCI), 48 h.
Regarding `COC1CCC(N2C(=O)CNc3ncc(-c4ccc(C(C)(C)O)nc4)nc32)CC1` (stereo not given), the GI50 is 1.03 µM and 0.176 µM; the TGI was > 8.63 µM and 9.06 µM.

For the compound `C#Cc1ccc(-n2c(/C=C/c3ccc(C(F)(F)F)cc3)nc3ncccc3c2=O)cc1`, the GI50 was 2.23 µM and the TGI was found to be 4.48 µM.

On to `Cc1cc(C)nc(NS(=O)(=O)c2ccc(NC(=O)c3ccc(Cl)c4c(Nc5ccc(S(=O)(=O)Nc6nc(C)cc(C)n6)cc5)c5ccccc5nc34)cc2)n1`, for which the TGI was over 100 µM.

With `Cc1cc(I)cc(CN(C)CCCCN2CCCCC2)c1O`, the GI50 was 9.87 µM and the TGI stood at 24.9 µM.

For the compound `CCCCCN(CCCCC)CCCNc1c2c(nc3ccc(Cl)cc13)CCCC2`, the GI50 is 1.28 µM and the TGI amounted to 2.81 µM.

The test system of the next assay is SF-268 CNS. The assay can be described thus: growth of human tumour cells (NCI), 48 h.
In the case of `COC1CCC(N2C(=O)CNc3ncc(-c4ccc(C(C)(C)O)nc4)nc32)CC1` (stereo not given), the GI50 was 1.97 µM and 0.356 µM; the TGI is over 41.5 µM.

Take `C#Cc1ccc(-n2c(/C=C/c3ccc(C(F)(F)F)cc3)nc3ncccc3c2=O)cc1`: the GI50 was 2.27 µM and the TGI was determined as 5.95 µM.

Take `Cc1cc(C)nc(NS(=O)(=O)c2ccc(NC(=O)c3ccc(Cl)c4c(Nc5ccc(S(=O)(=O)Nc6nc(C)cc(C)n6)cc5)c5ccccc5nc34)cc2)n1`: the TGI is over 100 µM.

Regarding `Cc1cc(I)cc(CN(C)CCCCN2CCCCC2)c1O`, the GI50 is 12.5 µM and the TGI amounted to 27.3 µM.

For `CCCCCN(CCCCC)CCCNc1c2c(nc3ccc(Cl)cc13)CCCC2`, the GI50 is 3.67 µM and the TGI was found to be 14.5 µM.

Another assay concerns LOX IMVI melanoma. The assay can be described thus: growth of human tumour cells (NCI), 48 h.
As to `COC1CCC(N2C(=O)CNc3ncc(-c4ccc(C(C)(C)O)nc4)nc32)CC1` (stereo not given), the GI50 was 1.35 µM and 0.329 µM; the TGI is over 34.2 µM.

Consider `C#Cc1ccc(-n2c(/C=C/c3ccc(C(F)(F)F)cc3)nc3ncccc3c2=O)cc1`, for which the GI50 was 1.89 µM and the TGI was 4.29 µM.

Turning to `Cc1cc(C)nc(NS(=O)(=O)c2ccc(NC(=O)c3ccc(Cl)c4c(Nc5ccc(S(=O)(=O)Nc6nc(C)cc(C)n6)cc5)c5ccccc5nc34)cc2)n1`, the TGI was over 100 µM.

`Cc1cc(I)cc(CN(C)CCCCN2CCCCC2)c1O`: the GI50 is 11.5 µM and the TGI worked out at 24 µM.

With `CCCCCN(CCCCC)CCCNc1c2c(nc3ccc(Cl)cc13)CCCC2`, the GI50 was 2.06 µM and the TGI stood at 5.97 µM.

In a further assay the test system is RXF 393 renal. Nature of the assay: growth of human tumour cells (NCI), 48 h.
Consider `COC1CCC(N2C(=O)CNc3ncc(-c4ccc(C(C)(C)O)nc4)nc32)CC1` (stereo not given), for which the GI50 was 0.373 µM and 0.187 µM; the TGI is 3.66 µM and 2.32 µM.

Turning to `C#Cc1ccc(-n2c(/C=C/c3ccc(C(F)(F)F)cc3)nc3ncccc3c2=O)cc1`, the GI50 is 1.79 µM and the TGI was 3.79 µM.

Compound `Cc1cc(C)nc(NS(=O)(=O)c2ccc(NC(=O)c3ccc(Cl)c4c(Nc5ccc(S(=O)(=O)Nc6nc(C)cc(C)n6)cc5)c5ccccc5nc34)cc2)n1` showed a TGI of 4.83 µM.

In the case of `Cc1cc(I)cc(CN(C)CCCCN2CCCCC2)c1O`, the GI50 was 12.9 µM and the TGI was found to be 32.6 µM.

In the case of `CCCCCN(CCCCC)CCCNc1c2c(nc3ccc(Cl)cc13)CCCC2`, the GI50 was 2.82 µM and the TGI was determined as 7.95 µM.

Another assay deals with SN12C renal. Nature of the assay: growth of human tumour cells (NCI), 48 h.
Consider `COC1CCC(N2C(=O)CNc3ncc(-c4ccc(C(C)(C)O)nc4)nc32)CC1` (stereo not given), for which the GI50 was 0.794 µM and 0.315 µM; the TGI was over 43.2 µM.

Take `C#Cc1ccc(-n2c(/C=C/c3ccc(C(F)(F)F)cc3)nc3ncccc3c2=O)cc1`: the GI50 was 2.08 µM and the TGI turned out to be 5.63 µM.

For the compound `Cc1cc(C)nc(NS(=O)(=O)c2ccc(NC(=O)c3ccc(Cl)c4c(Nc5ccc(S(=O)(=O)Nc6nc(C)cc(C)n6)cc5)c5ccccc5nc34)cc2)n1`, the TGI is over 100 µM.

As to `Cc1cc(I)cc(CN(C)CCCCN2CCCCC2)c1O`, the GI50 was 35.5 µM and the TGI is over 100 µM.

For `CCCCCN(CCCCC)CCCNc1c2c(nc3ccc(Cl)cc13)CCCC2`, the GI50 was 2.92 µM and the TGI was 12.8 µM.

A further assay has as its system U251 CNS. The assay can be described thus: growth of human tumour cells (NCI), 48 h.
Turning to `COC1CCC(N2C(=O)CNc3ncc(-c4ccc(C(C)(C)O)nc4)nc32)CC1` (stereo not given), the GI50 is 1.41 µM and 1.06 µM; the TGI was over 33.4 µM.

Turning to `C#Cc1ccc(-n2c(/C=C/c3ccc(C(F)(F)F)cc3)nc3ncccc3c2=O)cc1`, the GI50 is 1.67 µM and the TGI was 3.13 µM.

With `Cc1cc(C)nc(NS(=O)(=O)c2ccc(NC(=O)c3ccc(Cl)c4c(Nc5ccc(S(=O)(=O)Nc6nc(C)cc(C)n6)cc5)c5ccccc5nc34)cc2)n1`, the TGI is 21.9 µM.

Turning to `Cc1cc(I)cc(CN(C)CCCCN2CCCCC2)c1O`, the GI50 is 13.7 µM and the TGI was 31.2 µM.

For the compound `CCCCCN(CCCCC)CCCNc1c2c(nc3ccc(Cl)cc13)CCCC2`, the GI50 was 2.58 µM and the TGI was found to be 7.37 µM.

A further assay relates to RPMI-8226 leukemia. Nature of the assay: growth of human tumour cells (NCI), 48 h.
`COC1CCC(N2C(=O)CNc3ncc(-c4ccc(C(C)(C)O)nc4)nc32)CC1` (stereo not given): the GI50 is 0.376 µM and 0.0559 µM; the TGI is 2.95 µM and 3.97 µM.

With `C#Cc1ccc(-n2c(/C=C/c3ccc(C(F)(F)F)cc3)nc3ncccc3c2=O)cc1`, the GI50 is 1.39 µM and the TGI stood at 6.28 µM.

For the compound `Cc1cc(C)nc(NS(=O)(=O)c2ccc(NC(=O)c3ccc(Cl)c4c(Nc5ccc(S(=O)(=O)Nc6nc(C)cc(C)n6)cc5)c5ccccc5nc34)cc2)n1`, the TGI was over 100 µM.

`Cc1cc(I)cc(CN(C)CCCCN2CCCCC2)c1O`: the GI50 is 8.68 µM and the TGI stood at 25.5 µM.

Regarding `CCCCCN(CCCCC)CCCNc1c2c(nc3ccc(Cl)cc13)CCCC2`, the GI50 was 1.98 µM and the TGI is 4.54 µM.

These data come from PubChem BioAssay (NCI).
